Columns and labels:
[1] = tested on: IL-1β cytokine output from THP-1 cells; assay: THP-1 AlphaLISA IL-1β cytokine assay; assay type: cell-based; settings: Homo sapiens, THP-1, differentiated THP-1 cells
Protocol: (§1) Measuring Inhibitory Effects on IL-1β and IL-6 Cytokine Output from THP-1s
(§2) The cytokine inhibition profiles of compounds of formula (I) were determined in a differentiated THP-1 cell assay. All assays were performed in RPMI-1640 growth medium (Gibco), supplemented with 10% fetal bovine serum (FBS; Gibco), 1% penicillin-streptomycin and 1% sodium pyruvate unless specified otherwise. The IL-1β and IL-6 cytokine inhibition assays were each run in a background of differentiated THP-1 cells as described below. All reagents described were from Sigma-Aldrich unless specified otherwise. Compounds were prepared as 10 mM DMSO stocks.
(§3) THP-1 cells were expanded as a suspension up to 80% confluence in appropriate growth medium. Cells were harvested, suspended, and treated with an appropriate concentration of phorbol 12-myristate 13-acetate (PMA) over a 72 hr period (37° C./5% CO2).
(§4) Following 72 hrs of THP-1 cell incubation, cellular medium was removed and replaced with fresh growth media containing 1% of FBS. Working concentrations of compounds were prepared separately in 10% FBS treated growth medium and pre-incubated with the cells for 30 minutes (37° C./5% CO2). Following the 30 minute compound pre-incubation, THP-1s were treated with an appropriate concentration of LPS and the THP-1s were subsequently incubated for a 24 hr period (37° C./5% CO2). An appropriate final concentration of Nigericin was then dispensed into the THP-1 plates and incubated for 1 hour (37° C./5% CO2) before THP-1 supernatants were harvested and collected in separate polypropylene 96-well holding plates.
(§5) Reagents from each of the […] and IL-6 commercial kits (Perkin Elmer) were prepared and run according to the manufacturer's instructions. Subsequently, fluorescence signal detection in a microplate reader was measured (EnVision® Multilabel Reader, Perkin Elmer).
(§6) Percentage inhibition was calculated per cytokine by normalising the sample data to the high and low controls used within each plate (+/−LPS respectively). Percentage inhibition was then plotted against compound concentration and the 50% inhibitory concentration (IC50) was determined from the resultant concentration-response curve.

[2] = tested on: IL-6 cytokine output from THP-1 cells; assay: THP-1 AlphaLISA IL-6 cytokine assay; assay type: cell-based; settings: Homo sapiens, THP-1, differentiated THP-1 cells
Protocol: as §1, §2, §3, §4, §5, §6

[3] = tested on: NRF2 (nuclear factor erythroid 2-related factor 2); assay: NRF2 +/−GSH activation assay (DiscoverX PathHunter NRF2 translocation kit, U2OS cells); assay type: cell-based; settings: Homo sapiens; for Emax: U2OS, normalised to dimethyl fumarate high control; for EC50: U2OS PathHunter cells, 6 hours
[4] = Hepatocyte stability assay, human; assay type: in vitro ADME; settings: cryopreserved hepatocytes, 10 μM compound, 0.5×10^6 cells/mL, 60 min, read-out: T½
Source text: (§7) Defrosted cryo-preserved hepatocytes (viability>70%) may be used to determine the metabolic stability of a compound via calculation of intrinsic clearance (Clint; a measure of the removal of a compound from the liver in the absence of blood flow and cell binding). Clearance data are particularly important for in vitro work as they can be used in combination with in vivo data to predict the half-life and oral bioavailability of a drug.
(§8) The metabolic stability in hepatocytes assay involves a time-dependent reaction using both positive and negative controls. The cells were pre-incubated at 37° C. and spiked with test compound (and positive control); samples were taken at pre-determined time intervals and analysed to monitor the change in concentration of the initial drug compound over 60 minutes. A buffer incubation reaction (with no hepatocytes present) acted as a negative control and two cocktail solutions, containing compounds with known high and low clearance values (verapamil/7-hydroxycoumarin and propranolol/diltiazem), acted as positive controls. • 1. The assay was run with a cell concentration of 0.5×10^6 cells/mL in Leibovitz buffer. • 2. All compounds and controls were run in duplicate. • 3. Compound concentration was 10 μM. • 4. All compounds and controls were incubated with both cells and buffer to show turnover was due to hepatic metabolism. • 5. All wells on the incubation plate had 326.7 μL of either cells or buffer added. • 6. Prior to assay, cell and buffer-only incubation plates were preincubated for 10 mins at 37° C. • 7. The assay was initiated by adding compounds, 3.3 μL of 1 mM in 10% DMSO-90% Buffer; final DMSO concentration is 0.1%. • 8. Samples were taken at regular timepoints (0, 5, 10, 20, 40, 60 min) until 60 mins. • 9. Sample volume was 40 μL and was added to 160 μL of crash solvent (acetonitrile with internal standard) and stored on ice. • 10. At the end of the assay, the crash plates were centrifuged at 3500 rpm for 20 mins at 4° C. • 11. 80 μL of clear supernatant was removed and mixed with 80 μL of deionised water before being analysed by LC-MS/MS.
(§9) Raw LC-MS/MS data was exported to, and analysed in, Microsoft Excel for determination of intrinsic clearance. The percentage remaining of a compound was monitored using the peak area of the initial concentration as 100%. Intrinsic clearance and half-life values were calculated using a graph of the natural log of percentage remaining versus the time of reaction in minutes. Half-life (min) and intrinsic clearance (Clint in μL min^−1 10^−6 cells) values were calculated using the gradient of the graph (the elimination rate constant, k) and Equations 1 and 2.

hepatocytes [5] = assay: Hepatocyte stability assay, human; assay type: in vitro ADME; settings: 10 μM compound, 0.5×10^6 cells/mL, 60 min
Source text: as §7, §8, §9

[6] = Hepatocyte stability assay, mouse; assay type: in vitro ADME; settings: cryopreserved hepatocytes, 10 μM compound, 0.5×10^6 cells/mL, 60 min, read-out: T½
Source text: as §7, §8, §9

hepatocytes [7] = assay: Hepatocyte stability assay, mouse; assay type: in vitro ADME; settings: 10 μM compound, 0.5×10^6 cells/mL, 60 min
Source text: as §7, §8, §9

[8] = LPS 24 hr then Nigericin 1 hour
[9] = +GSH, 30 minute compound-GSH pre-incubation

Row | Compound | IC50 [1, 8] [µM] | IC50 ([1]; from repeated experiments) [µM] | IC50 [2, 8] [µM] | IC50 ([2]; from repeated experiments) [µM] | Emax ([3]; +GSH) [%] | Emax ([3]; −GSH) [%] | EC50 [3, 9] [µM] | EC50 ([3]; −GSH) [µM] | half-life at 10 μM [4] [min] | CIint (hepatocytes [5]) [μL min^−1 10^−6 cells] | half-life at 10 μM [6] [min] | CIint (hepatocytes [7]) [μL min^−1 10^−6 cells]
1 | C=C(CC(=O)OC1(c2ccc(C(F)(F)F)cc2)CCC1)C(=O)OCC(=O)O [Example 2, 2-((2-methylene-4-oxo-4-(1-(4-(trifluoromethyl)phenyl)cyclobutoxy)butanoyl)oxy)acetic acid] | 7.7 | 9.1 | 5.2 | 7.7 | 167 | 217 | 21.6 | 15.4 | > 460 | <3 | 38 | 50
2 | C=C(CC(=O)OC1(c2cc(Cl)ccc2Cl)CCC1)C(=O)OCC(=O)O [Example 5, 2-((4-(1-(2,5-dichlorophenyl)cyclobutoxy)-2-methylene-4-oxobutanoyl)oxy)acetic acid] | 10.6 | – | 5.3 | – | 185 | 208 | 25.4 | 16 | 172 | 9 | 24 | 80
3 | C=C(CC(=O)OC1(c2ccc(C(F)(F)F)cc2)CCC1)C(=O)OCCC(=O)O [Example 22, 3-((2-methylene-4-oxo-4-(1-(4-(trifluoromethyl)phenyl)cyclobutoxy)butanoyl)oxy)propanoic acid] | 10.3 | – | 11.2 | – | 183 | 225 | 22.3 | 14.9 | 156 | 9 | 12 | 128
4 | C=C(CC(=O)OC1(c2ccc(SC(F)(F)F)cc2)CCC1)C(=O)OCC(=O)O [Example 34, 2-((2-methylene-4-oxo-4-(1-(4-((trifluoromethyl)thio)phenyl)cyclobutoxy)butanoyl)oxy)acetic acid] | 5.1 | – | 2.7 | – | 2.8 | 0 | > 100 | > 54.8 | 116 | 11 | 23 | 74
5 | C=C(CC(=O)OC1(c2ccc(C(F)(F)F)cc2)CCC1)C(=O)OC1(CC(=O)O)COC1 [Example 33, 2-(3-((2-methylene-4-oxo-4-(1-(4-(trifluoromethyl)phenyl)cyclobutoxy)butanoyl)oxy)oxetan-3-yl)acetic acid] | 2.4 | – | 5.7 | – | 118 | 162 | 20.7 | 8.4 | 202 | 7 | 18 | 82
